Twelve compounds from ChEMBL document CHEMBL3112509, “Synthesis and antimicrobial activity of (1,4-phenylene)bis(arylsulfonylpyrazoles and isoxazoles)” (2014) can be followed below.

Common to all, as to format: functional
For experiment [1], the system named is Penicillium chrysogenum. Kind of experiment: Antifungal activity against Penicillium chrysogenum at 50 ug/well after 48 hrs by agar well diffusion method. The conditions noted are these: read-out: DIZ. A general note: In agar diffusion tests the substance spreads into inoculated agar from a disc or well.
Experiment [2] relates to Pseudomonas aeruginosa. The experiment in a line: Antibacterial activity against Pseudomonas aeruginosa at 100 ug/well after 24 hrs by agar well diffusion method. The conditions noted are these: for zone of inhibition at 100 µg/disc: read-out: DIZ.
The test system of experiment [3] is Klebsiella pneumoniae. Kind of experiment: Antibacterial activity against Klebsiella pneumoniae at 50 ug/well after 24 hrs by agar well diffusion method. As to conditions: for zone of inhibition at 50 µg/disc: read-out: DIZ.
Experiment [4] has as its system Penicillium chrysogenum. Kind of experiment: Antifungal activity against Penicillium chrysogenum at 100 ug/well after 48 hrs by agar well diffusion method. The conditions noted are these: read-out: DIZ.
Experiment [5] has as its system Bacillus subtilis. The experiment in a line: Antibacterial activity against Bacillus subtilis at 50 ug/well after 24 hrs by agar well diffusion method. The conditions noted are these: for zone of inhibition at 50 µg/disc: read-out: DIZ.
The test system of experiment [6] is Staphylococcus aureus. The experiment in a line: Antibacterial activity against Staphylococcus aureus at 100 ug/well after 24 hrs by agar well diffusion method. The conditions noted are these: for zone of inhibition at 100 µg/disc: read-out: DIZ.
For experiment [7], the system named is Bacillus subtilis. Kind of experiment: Antibacterial activity against Bacillus subtilis at 100 ug/well after 24 hrs by agar well diffusion method. The conditions noted are these: for zone of inhibition at 100 µg/disc: read-out: DIZ.
The subject of experiment [8] is Aspergillus niger. Kind of experiment: Antifungal activity against Aspergillus niger at 100 ug/well after 48 hrs by agar well diffusion method. The conditions noted are these: read-out: DIZ.
The test system of experiment [9] is Pseudomonas aeruginosa. Kind of experiment: Antibacterial activity against Pseudomonas aeruginosa at 50 ug/well after 24 hrs by agar well diffusion method. The conditions noted are these: for zone of inhibition at 50 µg/disc: read-out: DIZ.
Experiment [10] has as its system Aspergillus niger. Kind of experiment: Antifungal activity against Aspergillus niger at 50 ug/well after 48 hrs by agar well diffusion method. As to conditions: read-out: DIZ.
Experiment [11] has as its system Staphylococcus aureus. Kind of experiment: Antibacterial activity against Staphylococcus aureus at 50 ug/well after 24 hrs by agar well diffusion method. As to conditions: for zone of inhibition at 50 µg/disc: read-out: DIZ.
Experiment [12] has as its system Klebsiella pneumoniae. The experiment in a line: Antibacterial activity against Klebsiella pneumoniae at 100 ug/well after 24 hrs by agar well diffusion method. As to conditions: for zone of inhibition at 100 µg/disc: read-out: DIZ.

The structures appear in SMILES notation. Calls of active or inactive are those of the source. The calls are words filed in the database; no cut-off is given here.

With `COc1ccc(-c2noc(-c3ccc(-c4onc(-c5ccc(OC)cc5)c4S(=O)(=O)c4ccccc4)cc3)c2S(=O)(=O)c2ccccc2)cc1`, the zone of inhibition at 50 µg/disc was found to be 26 mm in the experiment with Penicillium chrysogenum [1]; 18 mm in the experiment with Klebsiella pneumoniae [3]; 26 mm in the experiment with Bacillus subtilis [5]; 16 mm with Pseudomonas aeruginosa [9]; 27 mm in the experiment with Aspergillus niger [10]; 20 mm in the experiment on Staphylococcus aureus [11]. Moreover, the zone of inhibition at 100 µg/disc in the experiment with Pseudomonas aeruginosa [2] worked out at 18 mm; in the experiment with Penicillium chrysogenum [4], 29 mm; with Staphylococcus aureus [6], 23 mm; with Bacillus subtilis [7], 28 mm; in the experiment on Aspergillus niger [8], 30 mm; in the experiment on Klebsiella pneumoniae [12], 21 mm.
`COc1ccc(-c2nn(-c3ccccc3)c(-c3ccc(-c4c(S(=O)(=O)c5ccccc5)c(-c5ccc(OC)cc5)nn4-c4ccccc4)cc3)c2S(=O)(=O)c2ccccc2)cc1`: the zone of inhibition at 50 µg/disc with Penicillium chrysogenum [1] was found to be 23 mm; in the experiment with Klebsiella pneumoniae [3] it was 15 mm; with Bacillus subtilis [5], 20 mm; with Pseudomonas aeruginosa [9], 12 mm; in the experiment with Aspergillus niger [10] it was 20 mm; with Staphylococcus aureus [11], 17 mm. Besides, the zone of inhibition at 100 µg/disc in the experiment on Pseudomonas aeruginosa [2] is 14 mm; in the experiment with Penicillium chrysogenum [4], 25 mm; with Staphylococcus aureus [6], 19 mm; in the experiment with Bacillus subtilis [7] it was 24 mm; in the experiment with Aspergillus niger [8], 22 mm; with Klebsiella pneumoniae [12] it was 16 mm.
As to `Cc1ccc(S(=O)(=O)C2C(c3ccc(Cl)cc3)=NN(c3ccccc3)C2c2ccc(C3C(S(=O)(=O)c4ccc(C)cc4)C(c4ccc(Cl)cc4)=NN3c3ccccc3)cc2)cc1` (centres undefined), the zone of inhibition at 50 µg/disc in the experiment with Penicillium chrysogenum [1] was 14 mm; in the experiment on Klebsiella pneumoniae [3] it was 8 mm; in the experiment on Bacillus subtilis [5] it was 11 mm; in the experiment with Aspergillus niger [10] it was 12 mm; with Staphylococcus aureus [11], 9 mm. Moreover, the “diameter of the inhibition zone (DIZ)” value in the experiment on Pseudomonas aeruginosa [2] and with Pseudomonas aeruginosa [9] was “inactive” each time. The zone of inhibition at 100 µg/disc with Penicillium chrysogenum [4] is 16 mm; in the experiment with Staphylococcus aureus [6] it was 11 mm; with Bacillus subtilis [7], 13 mm; with Aspergillus niger [8], 14 mm; with Klebsiella pneumoniae [12] it was 10 mm.
Regarding `COc1ccc(C2=NOC(c3ccc(C4ON=C(c5ccc(OC)cc5)C4S(=O)(=O)c4ccc(C)cc4)cc3)C2S(=O)(=O)c2ccc(C)cc2)cc1` (centres undefined), the zone of inhibition at 50 µg/disc is 15 mm with Penicillium chrysogenum [1] and 16 mm with Aspergillus niger [10]. For the same compound, the “diameter of the inhibition zone (DIZ)” value in the experiment on Pseudomonas aeruginosa [2], in the experiment with Klebsiella pneumoniae [3], in the experiment on Bacillus subtilis [5], in the experiment on Staphylococcus aureus [6], in the experiment on Bacillus subtilis [7] and with Pseudomonas aeruginosa [9] was “inactive” in each case. Moreover, the “diameter of the inhibition zone (DIZ)” value in the experiment on Staphylococcus aureus [11] and in the experiment on Klebsiella pneumoniae [12] was “inactive” in each case. Moreover, the zone of inhibition at 100 µg/disc turned out to be 18 mm in the experiment on Penicillium chrysogenum [4] and 19 mm with Aspergillus niger [8].
With `O=S(=O)(c1ccc(Cl)cc1)C1C(c2ccc(Cl)cc2)=NOC1c1ccc(C2ON=C(c3ccc(Cl)cc3)C2S(=O)(=O)c2ccc(Cl)cc2)cc1` (centres undefined), the zone of inhibition at 50 µg/disc in the experiment with Penicillium chrysogenum [1] is 21 mm; in the experiment with Klebsiella pneumoniae [3] it was 12 mm; in the experiment on Bacillus subtilis [5], 19 mm; with Pseudomonas aeruginosa [9] it was 11 mm; with Aspergillus niger [10], 18 mm; in the experiment on Staphylococcus aureus [11], 14 mm. For the same compound, the zone of inhibition at 100 µg/disc with Pseudomonas aeruginosa [2] was found to be 13 mm; in the experiment on Penicillium chrysogenum [4], 23 mm; in the experiment with Staphylococcus aureus [6], 16 mm; in the experiment with Bacillus subtilis [7], 21 mm; with Aspergillus niger [8], 20 mm; with Klebsiella pneumoniae [12], 14 mm.
On to `COc1ccc(C2=NN(c3ccccc3)C(c3ccc(C4C(S(=O)(=O)c5ccc(Cl)cc5)C(c5ccc(OC)cc5)=NN4c4ccccc4)cc3)C2S(=O)(=O)c2ccc(Cl)cc2)cc1` (centres undefined), for which the zone of inhibition at 50 µg/disc in the experiment on Penicillium chrysogenum [1] was found to be 15 mm; in the experiment on Aspergillus niger [10], 10 mm. Moreover, the “diameter of the inhibition zone (DIZ)” value in the experiment on Pseudomonas aeruginosa [2], with Klebsiella pneumoniae [3], with Bacillus subtilis [5], with Staphylococcus aureus [6], in the experiment with Bacillus subtilis [7] and in the experiment with Pseudomonas aeruginosa [9] was “inactive” throughout. In addition, the “diameter of the inhibition zone (DIZ)” value in the experiment on Staphylococcus aureus [11] and in the experiment on Klebsiella pneumoniae [12] was “inactive” in each case. The zone of inhibition at 100 µg/disc with Penicillium chrysogenum [4] stood at 17 mm; in the experiment on Aspergillus niger [8] it was 11 mm.
As to `COc1ccc(-c2noc(-c3ccc(-c4onc(-c5ccc(OC)cc5)c4S(=O)(=O)c4ccc(C)cc4)cc3)c2S(=O)(=O)c2ccc(C)cc2)cc1`, the zone of inhibition at 50 µg/disc in the experiment with Penicillium chrysogenum [1] was 25 mm; in the experiment on Klebsiella pneumoniae [3], 16 mm; in the experiment with Bacillus subtilis [5] it was 25 mm; in the experiment with Pseudomonas aeruginosa [9] it was 15 mm; with Aspergillus niger [10] it was 22 mm; in the experiment with Staphylococcus aureus [11], 20 mm. In addition, the zone of inhibition at 100 µg/disc in the experiment with Pseudomonas aeruginosa [2] was found to be 17 mm; in the experiment on Penicillium chrysogenum [4], 27 mm; with Staphylococcus aureus [6], 22 mm; in the experiment with Bacillus subtilis [7] it was 27 mm; with Aspergillus niger [8], 24 mm; with Klebsiella pneumoniae [12] it was 18 mm.
Regarding `O=S(=O)(c1ccccc1)C1C(c2ccc(Cl)cc2)=NOC1c1ccc(C2ON=C(c3ccc(Cl)cc3)C2S(=O)(=O)c2ccccc2)cc1` (centres undefined), the zone of inhibition at 50 µg/disc in the experiment with Penicillium chrysogenum [1] worked out at 20 mm; in the experiment with Klebsiella pneumoniae [3], 11 mm; in the experiment with Bacillus subtilis [5], 18 mm; in the experiment on Pseudomonas aeruginosa [9], 10 mm; with Aspergillus niger [10], 15 mm; in the experiment with Staphylococcus aureus [11], 14 mm. For the same compound, the zone of inhibition at 100 µg/disc in the experiment on Pseudomonas aeruginosa [2] amounted to 12 mm; with Penicillium chrysogenum [4], 22 mm; in the experiment on Staphylococcus aureus [6], 16 mm; with Bacillus subtilis [7] it was 20 mm; in the experiment with Aspergillus niger [8], 17 mm; in the experiment with Klebsiella pneumoniae [12], 13 mm.
For the compound `COc1ccc(C2=NOC(c3ccc(C4ON=C(c5ccc(OC)cc5)C4S(=O)(=O)c4ccccc4)cc3)C2S(=O)(=O)c2ccccc2)cc1` (centres undefined), the zone of inhibition at 50 µg/disc was found to be 14 mm with Penicillium chrysogenum [1] and 18 mm in the experiment on Aspergillus niger [10]. For the same compound, the “diameter of the inhibition zone (DIZ)” value in the experiment with Pseudomonas aeruginosa [2], with Klebsiella pneumoniae [3], with Bacillus subtilis [5], in the experiment with Staphylococcus aureus [6], in the experiment with Bacillus subtilis [7] and in the experiment on Pseudomonas aeruginosa [9] was “inactive” throughout. The “diameter of the inhibition zone (DIZ)” value in the experiment on Staphylococcus aureus [11] and in the experiment on Klebsiella pneumoniae [12] was “inactive” in each case. For the same compound, the zone of inhibition at 100 µg/disc stood at 17 mm with Penicillium chrysogenum [4] and 20 mm in the experiment on Aspergillus niger [8].
Regarding `COc1ccc(C2=NN(c3ccccc3)C(c3ccc(C4C(S(=O)(=O)c5ccc(C)cc5)C(c5ccc(OC)cc5)=NN4c4ccccc4)cc3)C2S(=O)(=O)c2ccc(C)cc2)cc1` (centres undefined), the zone of inhibition at 50 µg/disc with Penicillium chrysogenum [1] turned out to be 10 mm; with Aspergillus niger [10] it was 8 mm. Also, the “diameter of the inhibition zone (DIZ)” value in the experiment on Pseudomonas aeruginosa [2], with Klebsiella pneumoniae [3], with Bacillus subtilis [5], in the experiment with Staphylococcus aureus [6], in the experiment with Bacillus subtilis [7] and in the experiment with Pseudomonas aeruginosa [9] was “inactive” in each case. For the same compound, the “diameter of the inhibition zone (DIZ)” value with Staphylococcus aureus [11] and in the experiment with Klebsiella pneumoniae [12] was “inactive” throughout. Also, the figures for the zone of inhibition at 100 µg/disc with Penicillium chrysogenum [4] and in the experiment with Aspergillus niger [8] were 13 mm and 9 mm, respectively.
Consider `COc1ccc(-c2noc(-c3ccc(-c4onc(-c5ccc(OC)cc5)c4S(=O)(=O)c4ccc(Cl)cc4)cc3)c2S(=O)(=O)c2ccc(Cl)cc2)cc1`, for which the zone of inhibition at 50 µg/disc with Penicillium chrysogenum [1] stood at 27 mm; in the experiment on Klebsiella pneumoniae [3] it was 22 mm; in the experiment with Bacillus subtilis [5] it was 30 mm; in the experiment with Pseudomonas aeruginosa [9], 17 mm; in the experiment on Aspergillus niger [10], 23 mm; in the experiment on Staphylococcus aureus [11] it was 23 mm. The zone of inhibition at 100 µg/disc came to 20 mm with Pseudomonas aeruginosa [2]; 30 mm in the experiment on Penicillium chrysogenum [4]; 26 mm in the experiment with Staphylococcus aureus [6]; 32 mm with Bacillus subtilis [7]; 26 mm in the experiment on Aspergillus niger [8]; 24 mm with Klebsiella pneumoniae [12].
Consider `COc1ccc(C2=NN(c3ccccc3)C(c3ccc(C4C(S(=O)(=O)c5ccccc5)C(c5ccc(OC)cc5)=NN4c4ccccc4)cc3)C2S(=O)(=O)c2ccccc2)cc1` (centres undefined), for which the zone of inhibition at 50 µg/disc in the experiment with Penicillium chrysogenum [1] was found to be 12 mm; in the experiment on Aspergillus niger [10], 8 mm. Further, the “diameter of the inhibition zone (DIZ)” value with Pseudomonas aeruginosa [2], with Klebsiella pneumoniae [3], with Bacillus subtilis [5], in the experiment on Staphylococcus aureus [6], in the experiment on Bacillus subtilis [7] and with Pseudomonas aeruginosa [9] was “inactive” in each case. The “diameter of the inhibition zone (DIZ)” value in the experiment on Staphylococcus aureus [11] and in the experiment with Klebsiella pneumoniae [12] was “inactive” throughout. Besides, the zone of inhibition at 100 µg/disc is 16 mm with Penicillium chrysogenum [4] and 10 mm with Aspergillus niger [8].
